How the values were obtained:
Assay type in all cases: binding
Parameters in all cases: KINOMEscan: ABL1(F317L)-phosphorylated / KINOMEscan: ABL1(H396P)-nonphosphorylated / KINOMEscan: ABL1(H396P)-phosphorylated / KINOMEscan: ABL1(M351T)-phosphorylated / KINOMEscan: ABL1(T315I)-phosphorylated / KINOMEscan: ABL1-nonphosphorylated / KINOMEscan: ABL1-phosphorylated / KINOMEscan: ACVR2A / KINOMEscan: ACVR2B / KINOMEscan: ADCK3 / KINOMEscan: ADCK4 / KINOMEscan: AKT1 / KINOMEscan: AKT3 / KINOMEscan: ALK / KINOMEscan: ARK5 / KINOMEscan: AURKA / KINOMEscan: AURKC / KINOMEscan: BIKE / KINOMEscan: BMPR1A / KINOMEscan: BMPR1B / KINOMEscan: BMX / KINOMEscan: BRK / KINOMEscan: BRSK1 / KINOMEscan: BRSK2 / KINOMEscan: CAMK1 / KINOMEscan: CAMK1D / KINOMEscan: CAMK1G / KINOMEscan: CAMK2A / KINOMEscan: CAMK2B / KINOMEscan: AAK1 / KINOMEscan: CAMK2D / KINOMEscan: CAMK2G / KINOMEscan: ABL1(F317I)-nonphosphorylated / KINOMEscan: ABL1(F317I)-phosphorylated / KINOMEscan: ABL1(F317L)-nonphosphorylated: unit: % Ctrl
panel of 442 kinases [1] = molecular target: T1, panel of 442 kinases (Homo sapiens, UniProt Q9HAZ1); conditions: Compound Concentration 10 µM
T1 construct: purchased KINOMEscan
T1 sequence (Q9HAZ1 whole entry): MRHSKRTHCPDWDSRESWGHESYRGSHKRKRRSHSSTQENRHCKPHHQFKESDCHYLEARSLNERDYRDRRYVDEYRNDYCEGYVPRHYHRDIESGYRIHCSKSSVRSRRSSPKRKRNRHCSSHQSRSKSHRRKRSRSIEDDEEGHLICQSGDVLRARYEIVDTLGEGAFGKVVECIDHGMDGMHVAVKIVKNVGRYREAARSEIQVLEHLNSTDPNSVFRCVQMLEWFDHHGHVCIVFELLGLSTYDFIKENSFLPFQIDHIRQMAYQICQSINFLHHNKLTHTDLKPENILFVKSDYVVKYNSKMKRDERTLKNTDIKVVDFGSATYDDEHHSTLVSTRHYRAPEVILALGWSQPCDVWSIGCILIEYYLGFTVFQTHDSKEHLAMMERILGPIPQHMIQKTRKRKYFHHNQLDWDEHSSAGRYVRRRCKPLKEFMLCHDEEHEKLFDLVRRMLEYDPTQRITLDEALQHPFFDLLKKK
Text: (§1) We assessed the selectivity of members of this scaffold using the KINOMEscan methodology across a near comprehensive panel of 442 kinases [[18,27]].

panel of 442 kinases [2] = molecular target: T2, panel of 442 kinases (Homo sapiens, UniProt Q9H093); conditions: kinase SNARK; compound concentration 10 µM
T2 construct: purchased KINOMEscan
T2 sequence (Q9H093 1-628): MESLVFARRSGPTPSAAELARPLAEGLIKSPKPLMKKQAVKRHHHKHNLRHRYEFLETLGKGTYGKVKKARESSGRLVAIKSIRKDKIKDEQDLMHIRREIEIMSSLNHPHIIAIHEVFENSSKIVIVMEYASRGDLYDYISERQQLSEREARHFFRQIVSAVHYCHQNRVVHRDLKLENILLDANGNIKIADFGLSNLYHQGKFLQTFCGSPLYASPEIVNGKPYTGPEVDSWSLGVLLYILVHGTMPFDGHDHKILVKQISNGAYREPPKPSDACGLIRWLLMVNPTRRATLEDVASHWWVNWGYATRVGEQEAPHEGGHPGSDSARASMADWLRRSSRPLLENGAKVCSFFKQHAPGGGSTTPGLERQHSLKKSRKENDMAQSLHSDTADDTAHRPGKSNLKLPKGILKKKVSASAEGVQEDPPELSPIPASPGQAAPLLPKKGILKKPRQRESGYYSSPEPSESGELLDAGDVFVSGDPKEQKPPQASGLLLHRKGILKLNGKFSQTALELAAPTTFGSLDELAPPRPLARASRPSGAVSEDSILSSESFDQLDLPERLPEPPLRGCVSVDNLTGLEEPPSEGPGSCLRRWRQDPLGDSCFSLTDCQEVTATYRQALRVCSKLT
Text: as §1

panel of 442 kinases [3] = molecular target: T3, panel of 442 kinases (Homo sapiens, UniProt Q9UM73); conditions: Compound Concentration 10 µM
T3 construct: purchased KINOMEscan
T3 sequence (Q9UM73 19-1620): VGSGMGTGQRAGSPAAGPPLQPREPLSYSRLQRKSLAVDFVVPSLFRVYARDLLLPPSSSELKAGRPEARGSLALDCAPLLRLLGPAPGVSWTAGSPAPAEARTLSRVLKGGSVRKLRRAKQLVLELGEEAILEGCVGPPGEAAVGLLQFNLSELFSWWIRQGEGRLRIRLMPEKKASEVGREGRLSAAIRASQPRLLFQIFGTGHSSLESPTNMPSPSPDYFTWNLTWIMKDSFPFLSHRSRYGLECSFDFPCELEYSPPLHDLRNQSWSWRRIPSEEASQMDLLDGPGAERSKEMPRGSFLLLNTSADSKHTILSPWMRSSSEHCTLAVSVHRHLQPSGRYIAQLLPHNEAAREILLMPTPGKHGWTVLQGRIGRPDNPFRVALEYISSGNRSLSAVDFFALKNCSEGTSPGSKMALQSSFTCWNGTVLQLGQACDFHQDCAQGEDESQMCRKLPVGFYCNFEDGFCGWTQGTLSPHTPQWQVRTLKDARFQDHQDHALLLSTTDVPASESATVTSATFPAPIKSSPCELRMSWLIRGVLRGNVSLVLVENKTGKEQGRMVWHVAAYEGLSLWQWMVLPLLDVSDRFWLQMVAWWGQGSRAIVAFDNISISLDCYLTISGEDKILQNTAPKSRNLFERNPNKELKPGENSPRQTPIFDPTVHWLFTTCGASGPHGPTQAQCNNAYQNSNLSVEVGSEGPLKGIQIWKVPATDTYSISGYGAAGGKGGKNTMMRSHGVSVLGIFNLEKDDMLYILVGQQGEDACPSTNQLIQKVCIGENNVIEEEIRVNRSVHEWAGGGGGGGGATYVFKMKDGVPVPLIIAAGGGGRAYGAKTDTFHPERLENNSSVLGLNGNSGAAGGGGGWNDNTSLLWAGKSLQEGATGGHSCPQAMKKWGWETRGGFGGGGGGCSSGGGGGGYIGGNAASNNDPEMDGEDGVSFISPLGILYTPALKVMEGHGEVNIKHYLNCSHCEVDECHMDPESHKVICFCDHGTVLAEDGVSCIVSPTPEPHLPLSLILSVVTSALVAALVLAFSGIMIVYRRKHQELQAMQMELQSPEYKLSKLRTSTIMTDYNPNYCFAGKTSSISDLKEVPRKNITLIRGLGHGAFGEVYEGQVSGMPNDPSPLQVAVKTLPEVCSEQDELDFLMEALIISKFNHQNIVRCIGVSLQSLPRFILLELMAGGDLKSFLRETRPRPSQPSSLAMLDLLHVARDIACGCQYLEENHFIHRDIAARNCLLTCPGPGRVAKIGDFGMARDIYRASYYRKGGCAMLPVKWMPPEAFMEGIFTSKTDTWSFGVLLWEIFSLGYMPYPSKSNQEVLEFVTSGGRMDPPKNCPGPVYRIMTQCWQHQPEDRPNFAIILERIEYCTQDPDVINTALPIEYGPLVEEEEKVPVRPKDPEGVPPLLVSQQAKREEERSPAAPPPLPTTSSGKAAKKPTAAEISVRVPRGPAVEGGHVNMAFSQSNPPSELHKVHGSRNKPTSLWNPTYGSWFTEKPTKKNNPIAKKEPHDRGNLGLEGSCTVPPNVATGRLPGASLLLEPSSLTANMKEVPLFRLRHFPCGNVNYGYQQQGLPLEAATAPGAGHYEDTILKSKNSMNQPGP
Text: as §1

Row | SMILES | KINOMEscan: CLK4 (panel of 442 kinases [1]) | % Ctrl, SNARK (panel of 442 kinases [2]) | KINOMEscan: ALK (panel of 442 kinases [3])
1 | COc1cc(C(=O)N2CCC(N3CCN(C)CC3)CC2)ccc1Nc1ncc2c(n1)N(C)c1ccccc1C(=O)N2C [15 (LRRK2-IN-1)] | 54 | 47 % Ctrl | 13
2 | COc1cc(C(=O)N2CCC(N3CCN(C)CC3)CC2)ccc1Nc1ncc2c(n1)N1CCc3cccc(c31)C(=O)N2C [Compound 24] | 11 | 74 % Ctrl | 31
3 | COc1cc(C(=O)N2CCC(N3CCN(C)CC3)CC2)ccc1Nc1ncc2c(n1)N(C1CCCC1)c1ccccc1C(=O)N2C [Compound 25, 11-cyclopentyl-2-((2-methoxy-4-(4-(4-methylpiperazin-1-yl)piperidine-1-carbonyl)phenyl)amino)-5-methyl-5H-benzo[e]pyrimido[5,4-b][1,4]diazepin-6(11H)-one] | 100 | 100 % Ctrl | 15
4 | CCOc1cc(C(=O)N2CCC(N3CCN(C)CC3)CC2)ccc1Nc1ncc2c(n1)N(C1CCCC1)c1ccccc1C(=O)N2C [Compound 26] | 100 | 96 % Ctrl | 21

— publication PMC3914206
